Where two headings read alike, the source gives them in different places.
How the values were obtained:
[1] = Solubility of nomegestrol acetate in solvent mixtures; type: physicochemical
[2] = Clinical example No. 1: plasma nomegestrol acetate after gel applied daily to both breasts; type: in vivo, women
Description: In these examples, clinical trials were carried out on women, with the gel containing 0.11% of nomegestrol acetate, whose formulation is given in Table 1 of example I.
Twenty-four volunteers, women in good health and in the period of ovarian activity, with average age of 23.5 years, were treated on 15 consecutive days with 4 mg of nomegestrol acetate in a gel applied every day to both breasts.
Repeated blood samples were taken in the hours following the first and last administration, on 9 occasions (6 times before application of the gel and 3 times 3 hours afterwards), between the 2nd and the 14th day of treatment. The plasma of these samples was analysed for nomegestrol acetate by liquid chromatography combined with mass spectrometry.

[3] = tested on: breast pain; test: Clinical example No. 3: breast pain in premenopausal women treated with gel on both breasts; type: in vivo; settings: 55 women, 4 mg/day as gel on both breasts
Description: In these examples, clinical trials were carried out on women, with the gel containing 0.11% of nomegestrol acetate, whose formulation is given in Table 1 of example I. […], who had been suffering from breast pains for more than 3 months and for at least 7 days per cycle, were treated for an average time of 130 days with 4 mg of nomegestrol acetate applied each day, on the last 15 days of the menstrual cycle, in the form of a gel on both breasts. Efficacy was assessed after 3 months and at the end of treatment using a visual analogue scale for quantifying breast pain.

[4] = Solubility of nomegestrol acetate in solvent mixtures; type: physicochemical; settings: ethanol/water/propyleneglycol ternary mixture, aqueous with cosolvent or surfactant or cyclodextrin, read-out: Solubilities
Description: The effect of a ternary mixture of solvents, ethanol/water (45:55)/propyleneglycol on the solubility of nomegestrol acetate was determined.
We also examined the possibility of lowering the proportion of alcohol in the solvent, by means of this ternary mixture, while maintaining similar solubility; for this we choose the influence of propyleneglycol on solubility in ethanol/water systems (40:60 and 30:70).

[5] = after the last administration (15 consecutive days)
[6] = first day of treatment, 4 mg nomegestrol acetate in 0.11% gel on both breasts

Molecule CC(=O)O[C@]1(C(C)=O)CC[C@H]2[C@@H]3C=C(C)C4=CC(=O)CC[C@@H]4[C@H]3CC[C@@]21C [nomegestrol acetate] has a solubility ([1]; 95° ethanol/water binary mixture, aqueous with cosolvent or surfactant or cyclodextrin, 95° ethanol/water binary mixture, 10% 95° ethanol, read-out: Solubility of nomegestrol acetate) of 70 µg/mL, a solubility ([1]; 95° ethanol/water binary mixture, aqueous with cosolvent or surfactant or cyclodextrin, 95° ethanol/water binary mixture, 20% 95° ethanol, read-out: Solubility of nomegestrol acetate) of 113 µg/mL and a solubility ([1]; 95° ethanol/water binary mixture, aqueous with cosolvent or surfactant or cyclodextrin, 95° ethanol/water binary mixture, 30% 95° ethanol, read-out: Solubility of nomegestrol acetate) of 683 µg/mL. The solubility ([1]; 95° ethanol/water binary mixture, aqueous with cosolvent or surfactant or cyclodextrin, 95° ethanol/water binary mixture, 40% 95° ethanol, read-out: Solubility of nomegestrol acetate) was 2820 µg/mL, the solubility ([1]; 95° ethanol/water binary mixture, aqueous with cosolvent or surfactant or cyclodextrin, 95° ethanol/water binary mixture, 50% 95° ethanol, read-out: Solubility of nomegestrol acetate) was 7330 µg/mL and the solubility ([1]; 95° ethanol/water binary mixture, aqueous with cosolvent or surfactant or cyclodextrin, 95° ethanol/water binary mixture, 60% 95° ethanol, read-out: Solubility of nomegestrol acetate) was 17800 µg/mL. It also gave a solubility ([1]; 95° ethanol/water binary mixture, aqueous with cosolvent or surfactant or cyclodextrin, 95° ethanol/water binary mixture, 70% 95° ethanol, read-out: Solubility of nomegestrol acetate) of 24800 µg/mL, a solubility ([1]; 95° ethanol/water binary mixture, aqueous with cosolvent or surfactant or cyclodextrin, 95° ethanol/water binary mixture, 80% 95° ethanol, read-out: Solubility of nomegestrol acetate) of 29500 µg/mL and a solubility ([1]; 95° ethanol/water binary mixture, aqueous with cosolvent or surfactant or cyclodextrin, 95° ethanol/water binary mixture, 90% 95° ethanol, read-out: Solubility of nomegestrol acetate) of 26600 µg/mL. It also gave a solubility ([1]; 95° ethanol/water binary mixture, organic solvent or mixture, 95° ethanol/water binary mixture, 100% 95° ethanol, read-out: Solubility of nomegestrol acetate) of 32800 µg/mL, a solubility ([1]; 95° ethanol/water binary mixture, water, 95° ethanol/water binary mixture, 0% 95° ethanol, read-out: Solubility of nomegestrol acetate) of 56 µg/mL and a solubility ([1]; aqueous-alcoholic solvent mixture, aqueous with cosolvent or surfactant or cyclodextrin, aqueous-alcoholic mixture, 0% propyleneglycol, 3% Solketal, read-out: Solubility of nomegestrol acetate) of 6700 µg/mL. For the same molecule, the solubility ([1]; aqueous-alcoholic solvent mixture, aqueous with cosolvent or surfactant or cyclodextrin, aqueous-alcoholic mixture, 0% propyleneglycol, 3% Vitamin E TPGS, read-out: Solubility of nomegestrol acetate) was 7650 µg/mL, the solubility ([1]; aqueous-alcoholic solvent mixture, aqueous with cosolvent or surfactant or cyclodextrin, aqueous-alcoholic mixture, 0% propyleneglycol, 8% Solketal, read-out: Solubility of nomegestrol acetate) was 8600 µg/mL and the solubility ([1]; aqueous-alcoholic solvent mixture, aqueous with cosolvent or surfactant or cyclodextrin, aqueous-alcoholic mixture, 0% propyleneglycol, 8% Transcutol®, read-out: Solubility of nomegestrol acetate) was 10700 µg/mL. For the same molecule, the solubility ([1]; aqueous-alcoholic solvent mixture, aqueous with cosolvent or surfactant or cyclodextrin, aqueous-alcoholic mixture, 0% propyleneglycol, 8% Vitamin E TPGS, read-out: Solubility of nomegestrol acetate) was 11100 µg/mL, the solubility ([1]; aqueous-alcoholic solvent mixture, aqueous with cosolvent or surfactant or cyclodextrin, aqueous-alcoholic mixture, 3% propyleneglycol, 8% Transcutol®, read-out: Solubility of nomegestrol acetate) was 10600 µg/mL and the solubility ([1]; aqueous-alcoholic solvent mixture, aqueous with cosolvent or surfactant or cyclodextrin, aqueous-alcoholic mixture, 8% propyleneglycol, 0% Solketal, read-out: Solubility of nomegestrol acetate) was 7700 µg/mL. It also gave a solubility ([1]; aqueous-alcoholic solvent mixture, aqueous with cosolvent or surfactant or cyclodextrin, aqueous-alcoholic mixture, 8% propyleneglycol, 0% Transcutol®, read-out: Solubility of nomegestrol acetate) of 7700 µg/mL, a solubility ([1]; aqueous-alcoholic solvent mixture, aqueous with cosolvent or surfactant or cyclodextrin, aqueous-alcoholic mixture, 8% propyleneglycol, 0% Vitamin E TPGS, read-out: Solubility of nomegestrol acetate) of 7700 µg/mL and a solubility ([1]; aqueous-alcoholic solvent mixture, aqueous with cosolvent or surfactant or cyclodextrin, aqueous-alcoholic mixture, 8% propyleneglycol, 3% Solketal, read-out: Solubility of nomegestrol acetate) of 10700 µg/mL. It also gave a solubility ([1]; aqueous-alcoholic solvent mixture, aqueous with cosolvent or surfactant or cyclodextrin, aqueous-alcoholic mixture, 8% propyleneglycol, 3% Transcutol®, read-out: Solubility of nomegestrol acetate) of 7950 µg/mL, a solubility ([1]; aqueous-alcoholic solvent mixture, aqueous with cosolvent or surfactant or cyclodextrin, aqueous-alcoholic mixture, 8% propyleneglycol, 3% Vitamin E TPGS, read-out: Solubility of nomegestrol acetate) of 12500 µg/mL and a solubility ([1]; ethanol/water/Labrasol solvent mixture with propyleneglycol, aqueous with cosolvent or surfactant or cyclodextrin, System Ethanol 95° 45%/Water 50%/Labrasol® 5%, 10% propyleneglycol, read-out: Solubility of l'nomegestrol acetate) of 9500 µg/mL. For the same molecule, the solubility ([1]; ethanol/water/Labrasol solvent mixture with propyleneglycol, aqueous with cosolvent or surfactant or cyclodextrin, System Ethanol 95° 45%/Water 50%/Labrasol® 5%, 15% propyleneglycol, read-out: Solubility of l'nomegestrol acetate) was 10200 µg/mL, the solubility ([1]; ethanol/water/Labrasol solvent mixture, aqueous with cosolvent or surfactant or cyclodextrin, System Ethanol 95° 45%/Water 50%/Labrasol® 5%, 0% propyleneglycol, read-out: Solubility of l'nomegestrol acetate) was 9400 µg/mL and the solubility ([1]; ethanol/water/propyleneglycol solvent mixture, aqueous with cosolvent or surfactant or cyclodextrin, System III (Ethanol 95° 45%/Demineralized water 55%), 2% propyleneglycol, read-out: Solubilities) was 5100 µg/mL. The solubility ([1]; ethanol/water/propyleneglycol ternary mixture, aqueous with cosolvent or surfactant or cyclodextrin, System I (Ethanol 95° 30%/Demineralized water 70%), 0% propyleneglycol, read-out: Solubilities) was 600 µg/mL, the solubility ([1]; ethanol/water/propyleneglycol ternary mixture, aqueous with cosolvent or surfactant or cyclodextrin, System I (Ethanol 95° 30%/Demineralized water 70%), 4% propyleneglycol, read-out: Solubilities) was 500 µg/mL and the solubility ([1]; ethanol/water/propyleneglycol ternary mixture, aqueous with cosolvent or surfactant or cyclodextrin, System I (Ethanol 95° 30%/Demineralized water 70%), 6% propyleneglycol, read-out: Solubilities) was 700 µg/mL. The solubility ([1]; ethanol/water/propyleneglycol ternary mixture, aqueous with cosolvent or surfactant or cyclodextrin, System I (Ethanol 95° 30%/Demineralized water 70%), 8% propyleneglycol, read-out: Solubilities) was 1000 µg/mL, the solubility ([1]; ethanol/water/propyleneglycol ternary mixture, aqueous with cosolvent or surfactant or cyclodextrin, System I (Ethanol 95° 30%/Demineralized water 70%), 12% propyleneglycol, read-out: Solubilities) was 1100 µg/mL and the solubility ([1]; ethanol/water/propyleneglycol ternary mixture, aqueous with cosolvent or surfactant or cyclodextrin, System I (Ethanol 95° 30%/Demineralized water 70%), 20% propyleneglycol, read-out: Solubilities) was 1500 µg/mL. For the same molecule, the solubility ([1]; ethanol/water/propyleneglycol ternary mixture, aqueous with cosolvent or surfactant or cyclodextrin, System II (Ethanol 95° 40%/Demineralized water 60%), 0% propyleneglycol, read-out: Solubilities) was 2900 µg/mL, the solubility ([1]; ethanol/water/propyleneglycol ternary mixture, aqueous with cosolvent or surfactant or cyclodextrin, System II (Ethanol 95° 40%/Demineralized water 60%), 4% propyleneglycol, read-out: Solubilities) was 2600 µg/mL and the solubility ([1]; ethanol/water/propyleneglycol ternary mixture, aqueous with cosolvent or surfactant or cyclodextrin, System II (Ethanol 95° 40%/Demineralized water 60%), 8% propyleneglycol, read-out: Solubilities) was 3200 µg/mL. It also gave a solubility ([1]; ethanol/water/propyleneglycol ternary mixture, aqueous with cosolvent or surfactant or cyclodextrin, System II (Ethanol 95° 40%/Demineralized water 60%), 20% propyleneglycol, read-out: Solubilities) of 3900 µg/mL, a solubility ([1]; ethanol/water/propyleneglycol ternary mixture, aqueous with cosolvent or surfactant or cyclodextrin, System III (Ethanol 95° 45%/Demineralized water 55%), 0% propyleneglycol, read-out: Solubilities) of 5100 µg/mL and a solubility ([1]; ethanol/water/propyleneglycol ternary mixture, aqueous with cosolvent or surfactant or cyclodextrin, System III (Ethanol 95° 45%/Demineralized water 55%), 4% propyleneglycol, read-out: Solubilities) of 5100 µg/mL. The solubility ([1]; ethanol/water/propyleneglycol ternary mixture, aqueous with cosolvent or surfactant or cyclodextrin, System III (Ethanol 95° 45%/Demineralized water 55%), 6% propyleneglycol, read-out: Solubilities) was 5100 µg/mL, the solubility ([1]; ethanol/water/propyleneglycol ternary mixture, aqueous with cosolvent or surfactant or cyclodextrin, System III (Ethanol 95° 45%/Demineralized water 55%), 20% propyleneglycol, read-out: Solubilities) was 7900 µg/mL and the “area under the curve from 0 to 48 hours” value [2, 5] was 18.43±2.091 ng/ml per h. The “maximum concentration (plasma)” value [2, 5] was 0.65 ± 0.073 ng/mL, the “state of equilibrium obtained” value ([2]; daily application) was “after the 3rd day of treatment” and the concentration at 72 h ([2]; female, human, plasma, topical, 4 mg, 72 hours after the last application, read-out: plasma level) was 0.19 ± 0.027 ng/mL. For the same molecule, the “area under the curve from 0 to 48 hours” value [2, 6] was 6.08±0.775 ng/ml per h, the “maximum concentration (plasma)” value [2, 6] was 0.25 ± 0.027 ng/mL and the “nomegestrol acetate in the blood (m±sd)” value [3] was 0.44 ± 0.30 ng/mL. For the same molecule, the solubility ([4]; System I (Ethanol 95° 30%/Demineralized water 70%), 2% propyleneglycol) was 600 µg/mL, the solubility ([4]; System II (Ethanol 95° 40%/Demineralized water 60%), 2% propyleneglycol) was 2600 µg/mL and the solubility ([4]; System II (Ethanol 95° 40%/Demineralized water 60%), 6% propyleneglycol) was 3000 µg/mL. It also gave a solubility ([4]; System II (Ethanol 95° 40%/Demineralized water 60%), 12% propyleneglycol) of 3400 µg/mL, a solubility ([4]; System III (Ethanol 95° 45%/Demineralized water 55%), 8% propyleneglycol) of 7700 µg/mL and a solubility ([4]; System III (Ethanol 95° 45%/Demineralized water 55%), 12% propyleneglycol) of 7700 µg/mL.

From patent publication US20080227763A1, “Topical hormonal composition with systemic action” (LABORATOIRE THERAMEX, priority 1998, published 2008)
